These results are taken from patent US11098052B2, “4-azapodophylotoxins compounds” (Arizona Board of Regents on behalf of Arizona State …, priority 2016, dated 2021).

Data set [1] concerns P388 murine lymphocytic leukemia cell line. Briefly: Murine P388 lymphocytic leukemia inhibitory activity. As to conditions: Mus musculus. The format is cell-based.
In data set [2] the test system is BXPC-3 (pancreas). The data set is described as follows: Human cancer cell growth inhibition, sulforhodamine B assay, BXPC-3. It is filed as cell-based. As to conditions: read-out: Growth Inhibition of Human Cancer Cell Lines (GI50), BXPC-3. On the procedure:
(§1) Cancer Cell Line Procedures. The human cancer cell growth inhibition data were determined using the standard sulforhodamine B assay of the US National Cancer Institute as previously described.^35 In short, cells in a 5% fetal bovine serum/RPMI1640 medium were inoculated in 96-well plates and incubated for 24 h. Next, serial dilutions of the samples were added. After 48 h, the plates were fixed with trichloroacetic acid, stained with sulforhodamine B, and read with an automated microplate reader. A growth inhibition of 50% (GI50 or the drug concentration causing a 50% reduction in the net protein increase) was determined from optical density data employing Immunosoft® software.

The test system of data set [3] is MCF-7 (breast). Briefly: Human cancer cell growth inhibition, sulforhodamine B assay, MCF-7. It is filed as cell-based. As to conditions: read-out: Growth Inhibition of Human Cancer Cell Lines (GI50), MCF-7. The procedure: as §1
For orientation: Sulforhodamine B stains cellular protein and so reports cell mass.

For data set [4], the system named is SF-268 (CNS). Briefly: Human cancer cell growth inhibition, sulforhodamine B assay, SF-268. It is filed as cell-based. As to conditions: read-out: Growth Inhibition of Human Cancer Cell Lines (GI50), SF-268. The procedure:
as §1

Data set [5] concerns NCI-H460 (lung). Briefly: Human cancer cell growth inhibition, sulforhodamine B assay, NCI-H460. As to conditions: read-out: Growth Inhibition of Human Cancer Cell Lines (GI50), NCI-H460. It is filed as cell-based. On the procedure: as §1
The test system of data set [6] is KM20L2 (colon). The data set is described as follows: Human cancer cell growth inhibition, sulforhodamine B assay, KM20L2. The format is cell-based. As to conditions: read-out: Growth Inhibition of Human Cancer Cell Lines (GI50), KM20L2. The procedure:
as §1

Data set [7] concerns DU-145 (prostate). The data set is described as follows: Human cancer cell growth inhibition, sulforhodamine B assay, DU-145. It is filed as cell-based. As to conditions: read-out: Growth Inhibition of Human Cancer Cell Lines (GI50), DU-145. On the procedure:
as §1

Setting [8] is: P388, read-out: Murine P388 Lymphocytic Leukemia Inhibitory Activity (ED50).

Values after ≈ are worked out from the molar mass of the structure shown. Read-outs that look alike come from different tables or passages of the source. A value given as a limit tells only on which side of the number the result lay.

By melting point is commonly meant the temperature of the solid-liquid transition. `COc1ccc(C2C3=C(COC3=O)Nc3cc(OC)c(OC)c(OC)c32)cc1O[Si](C)(C)C(C)(C)C` (stereo not shown) showed a melting point of 169 to 171 °C.
Usually GI50 stands for the concentration that inhibits growth by half. With `COc1cc(C2C3=C(COC3=O)Nc3cc4c(cc32)OCO4)cc(OC)c1O` (stereo not shown) [Compound 29, 6,7-Methylenedioxy-9-(4-hydroxy-3,5-dimethoxy-phenyl)-4,9-dihydro-3H-furo[3,4-b]quinolin-1-one], in data set [1] (setting [8]), the IC50 turned out to be 0.028 µg/mL (≈ 0.073 µM). In addition, the GI50 is 0.028 µg/mL (≈ 0.073 µM) in data set [2] (BXPC-3, 48 h); 0.025 µg/mL (≈ 0.0652 µM) in data set [3] (MCF7, 48 h); 0.026 µg/mL (≈ 0.0678 µM) in data set [4] (SF-268, 48 h); 0.027 µg/mL (≈ 0.0704 µM) in data set [5] (NCI-H460, 48 h); 0.032 µg/mL (≈ 0.0835 µM) in data set [6] (KM-20L2, 48 h); 0.033 µg/mL (≈ 0.0861 µM) in data set [7] (DU-145, 48 h).
`COc1cc(C2C3=C(COC3=O)Nc3cc(OC)c(OC)c(OC)c32)cc(Br)c1OC` (stereo not shown) [Compound 15a, 6,7,8-Trimethoxy-9-(3-bromo-4,5-trimethoxyphenyl)-4,9-dihydro-3H-furo[3,4-b]quinolin-1-one] yielded a melting point of 175 to 177 °C. Besides, in data set [1] (setting [8]), the IC50 is 0.11 µg/mL (≈ 0.223 µM). For the same compound, in data set [2] (BXPC-3, 48 h), the GI50 stood at 0.56 µg/mL (≈ 1.14 µM). Also, the GI50 in data set [3] (MCF7, 48 h) was determined as 0.12 µg/mL (≈ 0.244 µM). Moreover, in data set [4] (SF-268, 48 h), the GI50 turned out to be 0.11 µg/mL (≈ 0.223 µM). In data set [5] (NCI-H460, 48 h), the GI50 is 0.35 µg/mL (≈ 0.711 µM). In data set [7] (DU-145, 48 h), the GI50 is 0.42 µg/mL (≈ 0.853 µM).
Consider `COc1cc(C2C3=C(COC3=O)N(C)c3cc4c(cc32)OCO4)cc(OC)c1OC` (stereo not shown) [Compound 16, 6,7-Methylenedioxy-4-methyl-9-(3,4,5-trimethoxyphenyl)-4,9-dihydro-3H-furo[3,4-b]quinolin-1-one], for which the IC50 in data set [1] (setting [8]) was 0.027 µg/mL (≈ 0.0656 µM). Further, the GI50 in data set [2] (BXPC-3, 48 h) came to 0.049 µg/mL (≈ 0.119 µM); in data set [3] (MCF7, 48 h), 0.034 µg/mL (≈ 0.0826 µM); in data set [4] (SF-268, 48 h), 0.029 µg/mL (≈ 0.0705 µM); in data set [5] (NCI-H460, 48 h), 0.032 µg/mL (≈ 0.0778 µM); in data set [6] (KM-20L2, 48 h), 0.032 µg/mL (≈ 0.0778 µM); in data set [7] (DU-145, 48 h), 0.026 µg/mL (≈ 0.0632 µM).
For `O=C1OCC2=C1C(c1cccc3c1OCO3)c1cc3c(cc1N2)OCO3` (stereo not shown) [Compound 15d, 6,7-Methylenedioxy-9-(2,3-methylenedioxyphenyl)-4,9-dihydro-3H-furo[3,4-b]quinolin-1-one], the melting point lay within 324 to 327 °C. Also, the IC50 in data set [1] (setting [8]) was determined as 0.17 µg/mL (≈ 0.484 µM). For the same compound, the GI50 in data set [2] (BXPC-3, 48 h) is 0.065 µg/mL (≈ 0.185 µM). In addition, the GI50 in data set [3] (MCF7, 48 h) worked out at 0.0039 µg/mL (≈ 0.0111 µM). In data set [4] (SF-268, 48 h), the GI50 is 0.0089 µg/mL (≈ 0.0253 µM). The GI50 in data set [5] (NCI-H460, 48 h) was found to be 0.021 µg/mL (≈ 0.0598 µM). The GI50 in data set [7] (DU-145, 48 h) was determined as 0.041 µg/mL (≈ 0.117 µM).
Take `COc1cc(C2C3=C(COC3=O)N(CCO)c3cc4c(cc32)OCO4)cc(OC)c1OC` (stereo not shown) [Compound 13, 6,7-Methylenedioxy-4-(2-hydroxy-ethyl)-9-(3,4,5-trimethoxyphenyl)-4,9-dihydro-3H-furo[3,4-b]quinolin-1-one]: in data set [1] (P388 cell line, read-out: Murine P388 Lymphocytic Leukemia Inhibitory Activity (ED50)), the IC50 turned out to be 2 µg/mL (≈ 4.53 µM). The GI50 in data set [2] (BXPC-3 pancreas, 48 h, sulforhodamine B) was 0.6 µg/mL (≈ 1.36 µM); in data set [3] (MCF7, MCF-7 breast, 48 h, sulforhodamine B), 0.37 µg/mL (≈ 0.838 µM); in data set [4] (SF-268 CNS, 48 h, sulforhodamine B) it was 0.41 µg/mL (≈ 0.929 µM); in data set [5] (NCI-H460 lung, 48 h, sulforhodamine B) it was 0.58 µg/mL (≈ 1.31 µM); in data set [6] (KM-20L2, KM20L2 colon, 48 h, sulforhodamine B) it was 0.52 µg/mL (≈ 1.18 µM); in data set [7] (DU-145 prostate, 48 h, sulforhodamine B), 1.3 µg/mL (≈ 2.94 µM).
`COc1ccc(C2C3=C(COC3=O)Nc3cc(OC)c(OC)c(OC)c32)cc1O` (stereo not shown) [Compound 15c, 6,7,8-Trimethoxy-9-(3-hydroxy-4-methoxyphenyl)-4,9-dihydro-3H-furo[3,4-b]quinolin-1-one]: in data set [1] (setting [8]), the IC50 was 0.78 µg/mL (≈ 1.95 µM). Also, the GI50 in data set [2] (BXPC-3, 48 h) was 6.5 µg/mL (≈ 16.3 µM); in data set [3] (MCF7, 48 h), 7 µg/mL (≈ 17.5 µM); in data set [4] (SF-268, 48 h), 7.3 µg/mL (≈ 18.3 µM); in data set [5] (NCI-H460, 48 h), 10.1 µg/mL (≈ 25.3 µM); in data set [7] (DU-145, 48 h) it was above 10 µg/mL.
As to `COc1cc(C2C3=C(COC3=O)Nc3cc(OC)c(OC)c(OC)c32)cc(OC)c1OC` (stereo not shown) [Compound 15, 6,7,8-Trimethoxy-9-(3,4,5-trimethoxyphenyl)-4,9-dihydro-3H-furo[3,4-b]quinolin-1-one], the melting point was in the range of 137 to 139 °C. The IC50 in data set [1] (setting [8]) was determined as 1.3 µg/mL (≈ 2.93 µM). Besides, the GI50 in data set [2] (BXPC-3, 48 h) worked out at 5.6 µg/mL (≈ 12.6 µM). The GI50 in data set [3] (MCF7, 48 h) was determined as 1.7 µg/mL (≈ 3.83 µM). For the same compound, the GI50 in data set [4] (SF-268, 48 h) is 3.6 µg/mL (≈ 8.12 µM). Moreover, the GI50 in data set [5] (NCI-H460, 48 h) came out at 3.6 µg/mL (≈ 8.12 µM). In addition, the GI50 in data set [7] (DU-145, 48 h) stood at 3.3 µg/mL (≈ 7.44 µM).
